Counter-ions that a name gives are not always drawn.

For orientation: inhibition means the percentage by which the read-out fell short of the control.

T1 sequence (P23975 whole entry): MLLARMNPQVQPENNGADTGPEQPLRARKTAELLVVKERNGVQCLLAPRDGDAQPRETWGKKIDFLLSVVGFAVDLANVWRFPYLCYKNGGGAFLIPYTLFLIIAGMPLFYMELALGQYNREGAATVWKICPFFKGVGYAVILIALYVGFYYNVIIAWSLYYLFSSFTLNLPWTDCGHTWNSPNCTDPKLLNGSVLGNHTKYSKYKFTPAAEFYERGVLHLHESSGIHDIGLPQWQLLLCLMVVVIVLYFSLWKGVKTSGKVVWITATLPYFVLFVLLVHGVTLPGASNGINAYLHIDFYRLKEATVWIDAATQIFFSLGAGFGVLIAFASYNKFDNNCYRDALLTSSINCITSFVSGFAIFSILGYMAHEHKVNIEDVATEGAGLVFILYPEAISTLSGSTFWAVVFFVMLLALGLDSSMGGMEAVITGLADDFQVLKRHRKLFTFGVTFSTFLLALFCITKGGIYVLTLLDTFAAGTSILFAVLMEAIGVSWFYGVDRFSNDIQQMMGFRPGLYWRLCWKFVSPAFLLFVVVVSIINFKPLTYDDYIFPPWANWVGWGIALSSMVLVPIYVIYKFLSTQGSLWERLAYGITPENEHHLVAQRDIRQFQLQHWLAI

The first test has as its target T1, hNET (Homo sapiens, UniProt P23975).
T1 construct: expressed in transfected cells
Kind of test: Norepinephrine (NE) uptake assay in MDCK-Net6 cells stably transfected with human hNET. In kind it is cell-based. Particulars: MDCK-Net6, read-out: % Inhibition @ 1 μM (hNET). How it is done:
Cells were plated at 300,000/T75 flask and cells were split twice weekly. […] Cells were plated at 250,000 cells/T75 flask and split twice weekly.
On day 1, cells were plated at 3,000 cells/well in growth medium and maintained in a cell incubator (37° C., 5% CO2). On day 2, growth medium was replaced with 200 μl of assay buffer (25 mM HEPES; 120 mM NaCl; 5 mM KCl; 2.5 mM CaCl2; 1.2 mM MgSO4; 2 mg/ml glucose (pH 7.4, 37° C.)) containing 0.2 mg/ml ascorbic acid and 10 μM pargyline. Plates containing cells with 200 μl of assay buffer were equilibrated for 10 minutes at 37° C. prior to addition of compounds. A stock solution of desipramine was prepared in DMSO (10 mM) and delivered to triplicate wells containing cells for a final test concentration of 1 μM. Data from these wells were used to define non-specific NE uptake (minimum NE uptake). Test compounds were prepared in DMSO (10 mM) and diluted in assay buffer according to test range (1 to 10,000 nM). Twenty-five microliters of assay buffer (maximum NE uptake) or test compound were added directly to triplicate wells containing cells in 200 μl of assay buffer. The cells in assay buffer with test compounds were incubated for 20 minutes at 37° C. To initiate the NE uptake, [^3H]NE diluted in assay buffer (120 nM final assay concentration) was delivered in 25 μl aliquots to each well and the plates were incubated for 5 minutes (37° C.). The reaction was terminated by decanting the supernatant from the plate. The plates containing cells were washed twice with 200 μl assay buffer (37° C.) to remove free radioligand. The plates were then inverted, left to dry for 2 minutes, then reinverted and air-dried for an additional 10 minutes. The cells were lysed in 25 μl of 0.25 N NaOH solution (4° C.), placed on a shake table and vigorously shaken for 5 minutes. After cell lysis, 75 μl of scintillation cocktail was added to each well and the plates were sealed with film tape. The plates were returned to the shake table and vigorously shaken for a minimum of 10 minutes to ensure adequate partitioning of organic and aqueous solutions. The plates were counted in a Wallac Microbeta counter (PerkinElmer) to collect the raw cpm data.
For each experiment, a data stream of cpm values collected from the Wallac Microbeta counter was downloaded to a Microsoft Excel statistical application program. Calculations of EC50 values were made using the transformed-both-sides logistic dose response program written by Wyeth Biometrics Department.
`CCNC[C@H](O)[C@@H](c1ccccc1)n1ccc2ccccc21` (racemic) [Example 5, (1RS,2SR)-3-(ethylamino)-1-(1H-indol-1-yl)-1-phenylpropan-2-ol hydrochloride]: the inhibition at 1 µM was 58.1%.

With `CNC[C@H](O)[C@@H](c1ccccc1)n1ccc2ccccc21` (racemic) [Example 11, (1RS,2SR)-1-(1H-indol-1-yl)-3-(methylamino)-1-phenylpropan-2-ol hydrochloride], the inhibition at 1 µM was 94.5%.

Regarding `CCNC[C@H](O)[C@@H](c1ccccc1)n1cc(C)c2ccccc21` (racemic) [Example 12, (1RS,2SR)-3-(ethylamino)-1-(3-methyl-1H-indol-1-yl)-1-phenyl propan-2-ol hydrochloride], the inhibition at 1 µM is 70.6%.

As for `CNC[C@@H](O)[C@@H](c1ccccc1)n1ccc2ccccc21` (racemic) [Example 16, (1RS,2RS)-1-(1H-indol-1-yl)-3-(methylamino)-1-phenylpropan-2-ol hydrochloride], the inhibition at 1 µM is 96.8%.

As for `CNC[C@H](O)[C@@H](c1ccccc1)n1ccc2cc(F)ccc21` (racemic) [Example 20, (1RS,2SR)-1-(5-fluoro-1H-indol-1-yl)-3-(methylamino)-1-phenylpropan-2-ol hydrochloride], the inhibition at 1 µM was 85%.

Turning to `Cc1cn([C@H](c2ccccc2)[C@@H](O)CN)c2ccccc12` (racemic) [Example 24, (1RS,2SR)-3-amino-1-(3-methyl-1H-indol-1-yl)-1-phenylpropan-2-ol hydrochloride], the inhibition at 1 µM is 57.2%.

In the case of `CNC[C@H](O)[C@@H](c1ccccc1)n1ccc2cc(Cl)ccc21` (racemic) [Example 26, (1RS,2SR)-1-(5-chloro-1H-indol-1-yl)-3-(methylamino)-1-phenylpropan-2-ol hydrochloride], the inhibition at 1 µM was 54%.

For `CNC[C@@H](O)[C@@H](c1ccccc1)n1ccc2cc(Cl)ccc21` (racemic) [Example 27, hydrochloride], the inhibition at 1 µM was determined as 75.4%.

Still in this test, the particulars now being: test compound 1 μM; [3H]NE uptake, MDCK-Net6 cells; read-out: % Inhibition @ 1 μM (hNET).
On to `O[C@@H](CN1CCOCC1)[C@@H](c1ccccc1)n1ccc2ccccc21` (racemic) [Example 3, (1RS,2SR)-1-(1H-indol-1-yl)-3-morpholin-4-yl-1-phenylpropan-2-ol hydrochloride], for which the inhibition at 1 µM was found to be 17.6%.

Turning to `CN(C)C[C@H](O)[C@@H](c1ccccc1)n1ccc2ccccc21` (racemic) [Example 4, (1RS,2SR)-3-(dimethylamino)-1-(1H-indol-1-yl)-1-phenylpropan-2-ol hydrochloride], the inhibition at 1 µM was 24.5%.

With `CC(C)NC[C@H](O)[C@@H](c1ccccc1)n1ccc2ccccc21` (racemic) [Example 6, (1RS,2SR)-1-(1H-indol-1-yl)-3-(isopropylamino)-1-phenylpropan-2-ol hydrochloride], the inhibition at 1 µM worked out at 13.1%.

For `O[C@@H](CNCc1ccccc1)[C@@H](c1ccccc1)n1ccc2ccccc21` (racemic) [Example 7, (1RS,2SR)-3-(benzylamino)-1-(1H-indol-1-yl)-1-phenylpropan-2-ol hydrochloride], the inhibition at 1 µM came to 25.6%.

With `O[C@@H](CNCC1CCCCC1)[C@@H](c1ccccc1)n1ccc2ccccc21` (racemic) [Example 8, (1RS,2SR)-3-[(cyclohexylmethyl)amino]-1-(1H-indol-1-yl)-1-phenylpropan-2-ol hydrochloride], the inhibition at 1 µM stood at 53.4%.

Turning to `O[C@@H](CN1CCNCC1)[C@@H](c1ccccc1)n1ccc2ccccc21` (racemic) [Example 13, (1RS,2SR)-1-(1H-indol-1-yl)-1-phenyl-3-piperazin-1-ylpropan-2-ol dihydrochloride], the inhibition at 1 µM is 34.3%.

With `O[C@@H](CNCc1ccncc1)[C@@H](c1ccccc1)n1ccc2ccccc21` (racemic) [Example 14, (1RS,2SR)-1-(1H-indol-1-yl)-1-phenyl-3-[(pyridin-4-ylmethyl)amino]propan-2-ol hydrochloride], the inhibition at 1 µM stood at 24.4%.

`O[C@@H](CN1CCCCC1)[C@@H](c1ccccc1)n1ccc2cc(Cl)ccc21` (racemic) [Example 15, (1RS,2SR)-1-(5-chloro-1H-indol-1-yl)-1-phenyl-3-piperidin-1-ylpropan-2-ol hydrochloride]: the inhibition at 1 µM was determined as 8.5%.

Take `NC[C@H](O)[C@@H](c1ccccc1)n1ccc2ccccc21` (racemic) [Example 17, (1RS,2SR)-3-amino-1-(1H-indol-1-yl)-1-phenylpropan-2-ol hydrochloride]: the inhibition at 1 µM worked out at 71%.

In the case of `CCNC[C@H](O)[C@@H](c1ccccc1)n1ccc2cc(F)ccc21` (racemic) [Example 18, (1RS,2SR)-3-(ethylamino)-1-(5-fluoro-1H-indol-1-yl)-1-phenylpropan-2-ol hydrochloride], the inhibition at 1 µM came to 11.3%.

In the case of `NC[C@H](O)[C@@H](c1ccccc1)n1ccc2cc(F)ccc21` (racemic) [Example 19, (1RS,2SR)-3-amino-1-(5-fluoro-1H-indol-1-yl)-1-phenylpropan-2-ol hydrochloride], the inhibition at 1 µM is 31.6%.

As to `CCN(C)C[C@H](O)[C@@H](c1ccccc1)n1ccc2ccccc21` (racemic) [Example 25, (1RS,2SR)-3-[ethyl(methyl)amino]-1-(1H-indol-1-yl)-1-phenylpropan-2-ol hydrochloride], the inhibition at 1 µM came out at 37.5%.

On to `CNC[C@H](O)[C@@H](c1ccccc1)n1cc(C#N)c2ccccc21` (racemic) [Example 28, 1-[(1RS,2SR)-2-hydroxy-3-(methylamino)-1-phenylpropyl]-1H-indole-3-carbonitrile hydrochloride], for which the inhibition at 1 µM was 30.1%.

With `CNC[C@@H](O)[C@H](c1ccc(OC(F)(F)F)cc1)n1ccc2ccccc21` (racemic) [Example 39, (1RS,2SR)-1-(1H-indol-1-yl)-3-(methylamino)-1-[4-(trifluoromethoxy)phenyl]propan-2-ol hydrochloride], the inhibition at 1 µM worked out at 57.4%.

As for `CNC[C@@H](O)[C@H](c1ccc(OC)cc1)n1ccc2ccccc21` (racemic) [Example 70, (1SR,2RS)-1-(1H-indol-1-yl)-1-(4-methoxyphenyl)-3-(methylamino)propan-2-ol hydrochloride], the inhibition at 1 µM turned out to be 77.7%.

In the case of `CNC[C@@H](O)[C@H](c1ccccc1)n1c(C)cc2ccccc21` (racemic) [Example 71, (1RS,2SR)-3-(methylamino)-1-(2-methyl-1H-indol-1-yl)-1-phenylpropan-2-ol hydrochloride], the inhibition at 1 µM is 44.9%.

Staying with this test, now noted: test compound 10 μM (stated in cell); [3H]NE uptake, MDCK-Net6 cells.
For the compound `CN1CCN(C[C@H](O)[C@@H](c2ccccc2)n2ccc3cc(F)ccc32)CC1` (racemic) [Example 2, (1RS,2SR)-1-(5-fluoro-1H-indol-1-yl)-3-(4-methylpiperazin-1-yl)-1-phenylpropan-2-ol dihydrochloride], testing at 10 µM gave an inhibition of 66.5%.

Turning to `Cc1cn([C@H](c2ccccc2)[C@@H](O)CNCC2CCCCC2)c2ccccc12` (racemic) [Example 9, (1RS,2SR)-3-[(cyclohexylmethyl)amino]-1-(3-methyl-1H-indol-1-yl)-1-phenylpropan-2-ol hydrochloride], testing at 10 µM gave an inhibition of 79.2%.

Turning to `Cc1cn([C@H](c2ccccc2)[C@@H](O)CNC(C)C)c2ccccc12` (racemic) [Example 10, (1RS,2SR)-3-(isopropylamino)-1-(3-methyl-1H-indol-1-yl)-1-phenylpropan-2-ol hydrochloride], the inhibition at 10 µM amounted to 70.5%.

The record behind these values is US20090093469A1, “Phenylaminopropanol Derivatives and Methods of Their Use” (WYETH, priority 2004, published 2009).
